Source: patent US9980943B2, “Methods of treating muscular dystrophy” (BOARD OF REGENTS OF THE NEVADA SYSTEM OF HIGHER EDUCATION, …, priority 2013, dated 2018)

Assays:
[1] = test system: β-galactosidase in CMV-LacZ C2C12 myoblasts; assay: CMV-LacZ secondary screen in C2C12 myoblasts (β-Gal stabilizing assay); format: cell-based, mouse; settings: for CMV-LACZ in Myoblasts, value relative to DMSO: SU9516 analogs, C2C12 CMV-LacZ, N=2
Outline: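 β-gal stabilization was measured in C2C12 myoblasts or myotubes stably transfected with a CMV-driven LacZ construct, using the FDG β-gal assay. Compounds were tested in dose-response at 0.5, 1, 5, 10, 20 and 40 μM, with two replicates per point.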

[2] = test system: α7 integrin (LacZ reporter in α7+/LacZ myotubes); assay: Myotube α7 integrin FDG assay (Burkin assay in myotubes, 96-well); format: cell-based, mouse; settings: for Burkin Assay in Myotubes, value relative to DMSO: SU9516 analogs, 96-well, N=3-6
[3] = test system: α7 Integrin protein in C2C12 myotubes; assay: Western blot of α7 integrin protein in C2C12 myotubes; format: cell-based, mouse; settings: 12 μM, 48 hours, α7B Integrin normalized to GAPDH
Protocol: Bands were quantified using Image J software and then graphed as α7 Integrin protein levels relative to GAPDH protein levels. * denotes a significant difference in relative protein levels with ** p<0.01.
C2C12 myotubes were treated for 48 hours with each hit compound, washed with PBS, then scraped and pelleted using standard procedures. Cell pellets were resuspended in RIPA buffer and protein concentration determined by BCA. Approximately 10 μg of protein was loaded per lane and separated on 8% SDS-PAGE gels and transferred to nitrocellulose using standard conditions. Blots were probed using α7A and α7B integrin specific rabbit polyclonal antibody as previously described and […].
Western blot analysis of the myotube protein extracts were then performed for α7B Integrin and normalized to GAPDH (FIGS. 8A and 8B).
Immunoblot analysis is used to assess the protein level expression in treated and control cells. C2C12 and human DMD myoblasts and myotubes are cultured in triplicate experiments and treated with lead compounds or DMSO as described above. Cells are harvested using a cell scraper and extracted proteins. Extracted protein is quantified by a Bradford assay. […] A LiCoR Odyssey scanner and software is used to quantify band intensities and statistical significance (p<0.05) is determined using ANOVA.

[4] = test system: α7 integrin (LacZ reporter in α7LacZ+/− myoblasts); assay: qHTS of the LOPAC library and MLSMR (online screen, α7LacZ+/− myoblasts); settings: LOPAC library
Protocol: A total of 250 α7LacZ^+/− myoblasts at passage 13 were dispensed using a multidrop (Thermo) into black low base tissue culture treated microclear aurora plates in 6 μl media containing DMEM without phenol, 5% FBS, 1× GluMax and 1× Penicillin/Streptomycin. […] Compounds were then dispensed using a Kalypsys pintool to deliver 23 nl/well compounds in DMSO (diluted into 6 μl resulting in a 1:260 dilution of compound). […] After incubation with compound, 5 μl of the media was aspirated using the Kalypsys washer/dispenser and 3 μl of the Mammalian Protein Extraction Reagent (MPER) lysis buffer (Thermo Fisher) was added. […] The plates were then incubated for 10 minutes at room temperature.
The assay was adapted for a high-throughput screen with the fully automated Kalypsys robotic system using 1536 well plates at NCGC.

[5] = test system: β-galactosidase in CMV-LacZ C2C12 myotubes; assay: CMV-LacZ secondary screen in C2C12 myotubes (β-Gal stabilizing assay); format: cell-based, mouse; settings: for CMV-LACZ in Myotubes, value relative to DMSO: SU9516 analogs, C2C12 CMV-LacZ, N=2
Outline: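 A secondary screen identifies compounds that stabilize β-gal independently of the native promoter, using CMV-LacZ C2C12 cells. Curves span 0.5–40 μM at six levels, in duplicate.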

[6] = test system: α7 integrin (LacZ reporter in α7βgal+/− myoblasts); assay: Myoblast α7+/LacZ integrin FDG assay (Burkin assay in myoblasts, 96-well); format: cell-based, mouse; settings: SU9516 analogs, 96-well, N=3-6

In the case of `COc1ccc2c(c1)/C(=C/c1cnc[nH]1)C(=O)N2` [SU9516, 3-[1-(3H-imidazol-4-yl)-meth-(Z)-ylidene]-5-methoxy-1,3-dihydro-indol-2-one, reference compound], the “activity in C2C12 CMV-LACZ myoblasts” value [1] is reported as “showed activity”, the EC50 ([2]; Mus musculus, Myotube, read-out: EC50 α7+/LacZ MT) is reported as 6 µM and the “increase in α7 Integrin protein levels compared to DMSO treated controls” value [3] is reported as “approximately 1.6 fold”. For the same compound, the “outcome of preliminary LOPAC library screen” value [4] was “hit” and the “activity in C2C12 CMV-LACZ myotubes” value [5] was “showed activity”.
`O=Nc1c(-c2c(O)[nH]c3ccccc23)[nH]c2ccccc12` [NCGC00015545-07] was tested, and the “CMV-LACZ in Myoblasts, value relative to DMSO” value ([1]; 0.5 uM) was 1.2967, the “CMV-LACZ in Myoblasts, value relative to DMSO” value ([1]; 1 uM) was 1.1950 and the “CMV-LACZ in Myoblasts, value relative to DMSO” value ([1]; 5 uM) was 0.7896. For the same compound, the “CMV-LACZ in Myoblasts, value relative to DMSO” value ([1]; 10 uM) was 0.8603, the “CMV-LACZ in Myoblasts, value relative to DMSO” value ([1]; 20 uM) was 0.5257 and the “CMV-LACZ in Myoblasts, value relative to DMSO” value ([1]; 40 uM) was 0.3383. The “Burkin Assay in Myotubes, value relative to DMSO” value ([2]; 0.5 uM) was 1.126, the “Burkin Assay in Myotubes, value relative to DMSO” value ([2]; 1 uM) was 1.08 and the “Burkin Assay in Myotubes, value relative to DMSO” value ([2]; 5 uM) was 0.8721. For the same compound, the “Burkin Assay in Myotubes, value relative to DMSO” value ([2]; 10 uM) was 0.7457, the “Burkin Assay in Myotubes, value relative to DMSO” value ([2]; 20 uM) was 0.6654 and the “Burkin Assay in Myotubes, value relative to DMSO” value ([2]; 40 uM) was 0.4975. The “CMV-LACZ in Myotubes, value relative to DMSO” value ([5]; 0.5 uM) was 1.0736, the “CMV-LACZ in Myotubes, value relative to DMSO” value ([5]; 1 uM) was 1.1036 and the “CMV-LACZ in Myotubes, value relative to DMSO” value ([5]; 5 uM) was 0.9434. For the same compound, the “CMV-LACZ in Myotubes, value relative to DMSO” value ([5]; 10 uM) was 0.8393, the “CMV-LACZ in Myotubes, value relative to DMSO” value ([5]; 20 uM) was 0.7010 and the “CMV-LACZ in Myotubes, value relative to DMSO” value ([5]; 40 uM) was 0.5470. For the same compound, the “Burkin Assay in Myoblasts, value relative to DMSO” value ([6]; 0.5 uM) was 1.073, the “Burkin Assay in Myoblasts, value relative to DMSO” value ([6]; 1 uM) was 1.12 and the “Burkin Assay in Myoblasts, value relative to DMSO” value ([6]; 5 uM) was 0.8463. The “Burkin Assay in Myoblasts, value relative to DMSO” value ([6]; 10 uM) was 0.568, the “Burkin Assay in Myoblasts, value relative to DMSO” value ([6]; 20 uM) was 0.3068 and the “Burkin Assay in Myoblasts, value relative to DMSO” value ([6]; 40 uM) was 0.242.
